Experimental data as given in patent publication US11053204B2, “Pyrimidinyloxy benzene derivatives as herbicides” (FMC Corporation, priority 2015, dated 2021).

Columns and labels:
Experiment in all cases: Test C preemergence, plant response rating
Format in all cases: in vivo
Settings in all cases: Preemergence
corn (Zea mays) = test system: corn (Zea mays)
Excerpt: (§1) Seeds of plant species selected from blackgrass (Alopecurus myosuroides), ryegrass, Italian (Italian ryegrass, Lolium multiflorum), wheat (winter wheat, Triticum aestivum), galium (catchweed bedstraw, Galium aparine), corn (Zea mays), crabgrass, large (large crabgrass, Digitaria sanguinalis), foxtail, giant (giant foxtail, Setaria faberii), johnsongrass (Sorghum halepense), lambsquarters (Chenopodium album), morningglory (Ipomoea coccinea), nutsedge, yellow (yellow nutsedge, Cyperus esculentus), pigweed (Amaranthus retroflexus), ragweed (common ragweed, Ambrosia elatior), soybean (Glycine max), barnyardgrass (Echinochloa crus-galli), oilseed rape (Brassica napus), pigweed, palmer (palmer pigweed, Amaranthus palmeri), waterhemp (common waterhemp, Amaranthus rudis), velvetleaf (Abutilon theophrasti), kochia (Kochia scoparia), surinam grass (Brachiaria decumbens), nightshade (eastern black nightshade, Solanum ptycanthum), wild poinsettia (Euphorbia heterophylla), windgrass (Apera spica-venti), and oat, wild (wild oat Avena fatua), were planted into a blend of loam soil and sand or a silt loam soil and treated preemergence with test chemicals formulated in a non-phytotoxic solvent mixture which included a surfactant.
(§2) At the same time, plants selected from these crop and weed species and also chickweed (common chickweed, Stellaria media), buckwheat, wild (wild buckwheat, Polygonum convolvulus), wild mustard (Sinapis arvensis), field poppy (Papaver rhoeas), field violet (Viola arvensis), geranium, cutleaf (cutleaf geranium, Geranium dissectum), Canada thistle (Cirsium arvense), and speedwell (bird's-eye speedwell, Veronica persica), were planted in pots containing Sunshine Redi-Earth® planting medium comprising spaghnum peat moss, vermiculite, starter nutrients and dolomitic limestone and treated with postemergence applications of test chemicals formulated in the same manner. Plants ranged in height from 2 to 18 cm (1- to 4-leaf stage) for postemergence treatments. Treated plants and controls were maintained in a greenhouse for 13 to 15 d, after which time all species were compared to controls and visually evaluated. Plant response ratings, summarized in Table C, are based on a scale of 0 to 100 where 0 is no effect and 100 is complete control. A dash (-) response means no test result.

[1] = test system: oilseed rape (Brassica napus)
Excerpt: as §1, §2

[2] = test system: nutsedge, yellow (yellow nutsedge, Cyperus esculentus)
Excerpt: as §1, §2

[3] = test system: foxtail, giant (giant foxtail, Setaria faberii)
Excerpt: as §1, §2

[4] = test system: blackgrass (Alopecurus myosuroides)
Excerpt: as §1, §2

[5] = test system: waterhemp (common waterhemp, Amaranthus rudis)
Excerpt: as §1, §2

[6] = test system: lambsquarters (Chenopodium album)
Excerpt: as §1, §2

[7] = test system: ryegrass, Italian (Italian ryegrass, Lolium multiflorum)
Excerpt: as §1, §2

[8] = test system: velvetleaf (Abutilon theophrasti)
Excerpt: as §1, §2

soybean (Glycine max) = test system: soybean (Glycine max)
Excerpt: as §1, §2

[9] = test system: morningglory (Ipomoea coccinea)
Excerpt: as §1, §2

[10] = test system: wheat (winter wheat, Triticum aestivum)
Excerpt: as §1, §2

[11] = test system: ragweed (common ragweed, Ambrosia elatior)
Excerpt: as §1, §2

[12] = test system: crabgrass, large (large crabgrass, Digitaria sanguinalis)
Excerpt: as §1, §2

C=C(Br)COC(=O)c1c(Br)cccc1Oc1ncc(Cl)cn1 [Compound 61]
Plant response rating, Corn (corn (Zea mays); 62 g ai/ha, scale of 0 to 100): 10
Plant response rating, Corn (corn (Zea mays); 125 g ai/ha, scale of 0 to 100): 0
Plant response rating, Corn (corn (Zea mays); 16 g ai/ha, scale 0 to 100): 0
Plant response rating, Corn (corn (Zea mays); 31 g ai/ha, scale 0 to 100): 0
Plant response rating, Oilseed Rape ([1]; 125 g ai/ha, scale of 0 to 100): 10
Plant response rating, Oilseed Rape ([1]; 16 g ai/ha, scale 0 to 100): 0
Plant response rating, Oilseed Rape ([1]; 31 g ai/ha, scale 0 to 100): 0
Plant response rating, Oilseed Rape ([1]; 62 g ai/ha, scale 0 to 100): 0
Plant response rating, Nutsedge, Yellow ([2]; 125 g ai/ha, scale of 0 to 100): 0
Plant response rating, Nutsedge, Yellow ([2]; 16 g ai/ha, scale 0 to 100): 0
Plant response rating, Nutsedge, Yellow ([2]; 31 g ai/ha, scale 0 to 100): 0
Plant response rating, Nutsedge, Yellow ([2]; 62 g ai/ha, scale 0 to 100): 0
Plant response rating, Foxtail, Giant ([3]; 62 g ai/ha, scale of 0 to 100): 60
Plant response rating, Foxtail, Giant ([3]; 125 g ai/ha, scale of 0 to 100): 65
Plant response rating, Foxtail, Giant ([3]; 16 g ai/ha, scale 0 to 100): 0
Plant response rating, Foxtail, Giant ([3]; 31 g ai/ha, scale 0 to 100): 50
Plant response rating, Blackgrass ([4]; 62 g ai/ha, scale of 0 to 100): 0
Plant response rating, Blackgrass ([4]; 125 g ai/ha, scale of 0 to 100): 5
Plant response rating, Blackgrass ([4]; 16 g ai/ha, scale 0 to 100): 0
Plant response rating, Blackgrass ([4]; 31 g ai/ha, scale 0 to 100): 0
Plant response rating, Waterhemp ([5]; 125 g ai/ha, scale of 0 to 100): 100
Plant response rating, Waterhemp ([5]; 16 g ai/ha, scale 0 to 100): 50
Plant response rating, Waterhemp ([5]; 31 g ai/ha, scale 0 to 100): 75
Plant response rating, Waterhemp ([5]; 62 g ai/ha, scale 0 to 100): 90
Plant response rating, Lambsquarters ([6]; 125 g ai/ha, scale of 0 to 100): 60
Plant response rating, Lambsquarters ([6]; 16 g ai/ha, scale 0 to 100): 5
Plant response rating, Lambsquarters ([6]; 31 g ai/ha, scale 0 to 100): 15
Plant response rating, Lambsquarters ([6]; 62 g ai/ha, scale 0 to 100): 50
Plant response rating, Ryegrass, Italian ([7]; 125 g ai/ha, scale of 0 to 100): 5
Plant response rating, Ryegrass, Italian ([7]; 16 g ai/ha, scale 0 to 100): 0
Plant response rating, Ryegrass, Italian ([7]; 31 g ai/ha, scale 0 to 100): 0
Plant response rating, Ryegrass, Italian ([7]; 62 g ai/ha, scale 0 to 100): 0
Plant response rating, Velvetleaf ([8]; 125 g ai/ha, scale of 0 to 100): 5
Plant response rating, Velvetleaf ([8]; 16 g ai/ha, scale 0 to 100): 0
Plant response rating, Velvetleaf ([8]; 31 g ai/ha, scale 0 to 100): 5
Plant response rating, Velvetleaf ([8]; 62 g ai/ha, scale 0 to 100): 5
Plant response rating, Soybean (soybean (Glycine max); 125 g ai/ha, scale of 0 to 100): 10
Plant response rating, Soybean (soybean (Glycine max); 31 g ai/ha, scale 0 to 100): 20
Plant response rating, Soybean (soybean (Glycine max); 62 g ai/ha, scale 0 to 100): 20
Plant response rating, Morningglory ([9]; 125 g ai/ha, scale of 0 to 100): 0
Plant response rating, Morningglory ([9]; 16 g ai/ha, scale 0 to 100): 0
Plant response rating, Morningglory ([9]; 31 g ai/ha, scale 0 to 100): 0
Plant response rating, Morningglory ([9]; 62 g ai/ha, scale 0 to 100): 0
Plant response rating, Wheat ([10]; 125 g ai/ha, scale of 0 to 100): 10
Plant response rating, Wheat ([10]; 16 g ai/ha, scale 0 to 100): 0
Plant response rating, Wheat ([10]; 31 g ai/ha, scale 0 to 100): 0
Plant response rating, Wheat ([10]; 62 g ai/ha, scale 0 to 100): 5
Plant response rating, Ragweed ([11]; 125 g ai/ha, scale of 0 to 100): 30
Plant response rating, Ragweed ([11]; 16 g ai/ha, scale 0 to 100): 0
Plant response rating, Ragweed ([11]; 31 g ai/ha, scale 0 to 100): 0
Plant response rating, Ragweed ([11]; 62 g ai/ha, scale 0 to 100): 5
Plant response rating, Crabgrass, Large ([12]; 62 g ai/ha, scale of 0 to 100): 75
Plant response rating, Crabgrass, Large ([12]; 125 g ai/ha, scale of 0 to 100): 90
Plant response rating, Crabgrass, Large ([12]; 16 g ai/ha, scale 0 to 100): 0
Plant response rating, Crabgrass, Large ([12]; 31 g ai/ha, scale 0 to 100): 10
